Measurements from publication PMC6148246, “HS-1371, a novel kinase inhibitor of RIP3-mediated necroptosis” (Experimental & Molecular Medicine, 2018).

Tests used:
[1] = molecular target: RIP3 (Homo sapiens, UniProt Q9Y572); assay: Mechanism of action / ATP competition study with RIP3 enzyme; type: biochemical; details: 20 min pre-incubation; Michaelis-Menten and Lineweaver-Burk plots
Procedure: To understand the interaction modes of these inhibitors within RIP3, the mechanisms of action studies including ATP competition were further performed with HS-1371. A 20 min pre-incubation of the compound and RIP3 enzyme was performed to ensure HS-1371 binding to the enzyme and equilibration. The reactions were monitored every 5–15 min to obtain progress curves with a time course. At each time point, radioisotope signal (^33P) was converted into M phosphate transferred to substrate and was plotted against time. The slopes (or velocity; M/min) were then plotted against ATP concentrations to generate a Michaelis–Menten plot and a subsequent Lineweaver–Burk plot (double-reciprocal plot) using GraphPad Prism software (GraphPad Software Inc., San Diego, CA). The results were further analyzed with global fit using GraFit software.

[2] = tested on: HT-29 cells; assay: TSZ-induced necroptotic cell death in HT-29 cells (MTT assay); type: cell-based
Procedure: Cell viability was determined using tetrazolium dye colorimetric tests (the MTT assay) read at 570 nm. PI staining was quantified using propidium iodide (Cat. No. 51-66211E, BD Biosciences). Lactate dehydrogenase (LDH) leakage was quantified using the […] according to the manufacturer’s instructions. The LDH absorbance was read at 490 nm, and the mean ± STDEV of duplicates is presented.
HT-29 cells were pretreated with four tested inhibitors for 2 h and then treated with TSZ (6 h for immunoblotting, 24 h for cell death assay). Cell lysates were analyzed by immunoblotting, and cell viability was analyzed by MTT assay or phase-contrast microscopy. The results are presented as the means ± SEM. *P < 0.05, **P < 0.01, ***P < 0.001. b Protection of necroptosis by HS-1371 treatment is similar with dabrafenib, which abolished downstream events. HT-29 cells were pretreated with various necroptosis inhibitors and HS-1371 before TSZ treatment. Cell lysates were analyzed by immunoblotting, and cell viability was analyzed by MTT assay (left panel). Cells were stained with phospho-MLKL antibody and analyzed by confocal fluorescence microscopy (middle panel), and cell death was further analyzed by FACS analysis after PI staining (right panel). c HS-1371 protects cells from TNF-induced necroptosis in a dose-dependent manner. HT-29 cells were pretreated with indicated concentrations of HS-1371 and then treated with TSZ (6 h for immunoblotting, 24 h for cell death assay). Cell lysates were analyzed by immunoblotting, and cell viability was analyzed by MTT assay or phase-contrast microscopy. The results are presented as means ± SEM. *P < 0.05, **P < 0.01, ***P < 0.001 TEXT PRINTED IN THE PICTURE: (b) TSZ: 20.7 | (b) TSZ + Nec-1: 5.8 | (b) TSZ + DAB: 5.5 | (b) TSZ + 1371: 6.8 DOUBTS OF THE COPYIST ABOUT THIS PICTURE: Panel b, flow cytometry plots: the red gate numbers are printed without a measure or unit, so none is given / Panel b: the 'Untreated' control plot prints 7.7; left out because it is not a substance

[3] = tested on: NF-κB pathway; assay: TNF- or LPS-induced NF-κB signaling (immunoblot); type: cell-based
Procedure: Supplementary Figure 1. Identification of HS-1371 as a novel RIP3 kinase inhibitor.
Detailed interaction patterns in the region surrounded by DFG motif and αC helix of RIP3.
Hydrogen bonds are indicated with dotted lines.
Supplementary Figure 2. The effect of HS-1371 was compared with GSK’872.
(a) Overexpression of RIP3 could induce S227 phosphorylation without stimuli. HEK293T cells were transiently transfected with Flag-hRIP3, and cells were treated with or without DAB for incubation periods. After cells were harvested, cell lysates were analyzed by […]
kinase inhibitor. HT-29 cells were treated with HS -1371 or GSK’872 indicated concentrations for 9 h, and cell lysates were analyzed by immunoblotting.
(c) Cytotoxicity of HS-1371 was compared with GSK’872. HT-29 cells were treated with 2 kinase inhibitors for 24 h and cell viability was analyzed by MTT assay.
(d) Inhibition of MLKL phosphorylation by HS-1371 was compared with other two RIP3 kinases inhibitors, DAB (5 μM) and GSK’872 (5 μM). […] Cell lysates were analyzed by […]
HeLa, L929, and MEF cells were pretreated with HS-1371 (5 μM) for 2 h, and treated with TNF (30 ng/mL) for indicated time points. Cell lysates were analyzed by immunoblotting. […]
(a) RAW264.7 cells were treated with LPS (1 μg/mL) for indicated time points and cell lysates were analyzed by immunoblotting. […]

[4] = tested on: L929; assay: TNF plus zVAD-induced necroptosis in L929 cells; type: cell-based, mouse
Procedure: Cells were pretreated with DAB or HS-1371 for 2 h and then treated with TSZ (6 h for immunoblotting, 24 h for cell death assay). Cell lysates were analyzed by immunoblotting (left bottom panel), and cell viability was analyzed by MTT assay (right panel). The results are presented as means ± SEM. *P < 0.05, **P < 0.01, ***P < 0.001. c, d HS-1371 had the same effect on mouse cells. L929 (mouse sarcoma, c) and MEF (mouse embryonic fibroblast, d) cells were pretreated with inhibitors and then necroptosis was induced by TNF. Cell lysates were analyzed by immunoblotting (upper panel), and cell viability was analyzed by MTT assay (bottom panel). The results are presented as means ± SEM. *P < 0.05, **P < 0.01, ***P < 0.001

Chain of RIP3 (Q9Y572 whole entry): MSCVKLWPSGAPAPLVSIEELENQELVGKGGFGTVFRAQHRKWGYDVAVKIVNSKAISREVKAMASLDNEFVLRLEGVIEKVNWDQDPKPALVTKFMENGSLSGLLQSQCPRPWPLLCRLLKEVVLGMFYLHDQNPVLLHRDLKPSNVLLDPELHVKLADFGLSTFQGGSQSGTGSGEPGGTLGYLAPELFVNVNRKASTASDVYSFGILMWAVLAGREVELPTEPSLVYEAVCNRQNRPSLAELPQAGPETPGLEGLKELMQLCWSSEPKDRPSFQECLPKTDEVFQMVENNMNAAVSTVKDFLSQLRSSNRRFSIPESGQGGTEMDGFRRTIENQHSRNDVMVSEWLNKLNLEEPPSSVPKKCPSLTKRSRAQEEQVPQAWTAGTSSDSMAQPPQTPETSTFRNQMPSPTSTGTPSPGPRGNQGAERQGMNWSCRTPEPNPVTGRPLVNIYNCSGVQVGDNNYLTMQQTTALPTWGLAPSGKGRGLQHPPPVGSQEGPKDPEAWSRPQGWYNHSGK

SMILES: Cc1ccc(Oc2ccnc3cc(-c4cnn(C5CCNCC5)c4)ccc23)cc1 [HS-1371, 7-(1-(Piperidin-4-yl)-1H-pyrazol-4-yl)-4-(p-tolyloxy)quinoline]
- mechanism of action upon binding to RIP3 [1]: time-independent and ATP-competitive
- TNF-induced cell death, pre-treatment and post-treatment ([2]; HT-29, 5 μM, pretreated 1 h or applied 1 or 2 h after induction): completely inhibited
- viability in response to TSZ-mediated necroptosis, dose-dependent ([2]; HT-29, indicated concentrations, TSZ 24 h): effectively restored
- cellular cytotoxicity, post-treatment after TSZ ([2]; HT-29, post-treatment until approximately 5 h after TSZ): significantly reduced
- rescue from TSZ-induced cell death ([2]; HT-29, pretreated 2 h, TSZ 24 h): rescued
- TNF-induced NF-κB signaling ([3]; HT-29, HeLa(RIP3), L929, MEF, 5 μM pretreated 2 h, TNF 30 ng/mL): did not affect
- LPS-induced induction of the NF-κB pathway ([3]; data not shown): not altered
- TNF plus zVAD-induced necroptosis [4]: prevented
